What is called IC50 is the midpoint of a concentration-inhibition curve. Usually inhibition stands for the share of the control response that was lost under treatment.

The record followed here is publication PMC4994518 (Journal of medicinal chemistry, 2010).

Assay [1] concerns MDA-MB-231 breast tumor cell line. The assay is described as follows: Growth inhibition of MDA-MB-231 breast tumor cell line. Format: cell-based, human. To be noted: for inhibition at 10 µM: Homo sapiens, MDA-MB-231, read-out: % growth inhibition at 10 μM.
Another assay deals with Human recombinant PDE 5A (Homo sapiens, UniProt O76074). Nature of the assay: Phosphodiesterase assay. The assay is classed as biochemical. The note with it: for % PDE 5 inhibition at 10 μM: recombinant human PDE5, 10 μM, duplicate values.

In the case of `COC(=O)[C@H]1Cc2c([nH]c3ccccc23)[C@H](c2ccc(Cl)c(Cl)c2)N1` [Compound 6, (1S,3R)Methyl-1-(3,4-dichlorophenyl)-2,3,4,9-tetrahydro-1H-β-carboline-3-carboxylate], the IC50 in assay [1] (read-out: growth inhibition IC50 (μM) and CI at p < 0.05, MDA-MB-231, at least 8 concentrations, quadruple replicates, CI in brackets) was less than 10 µM.

For `COC(=O)[C@H]1Cc2c([nH]c3ccccc23)[C@@H](c2ccc(Cl)cc2Cl)N1C(=O)CCl` [Compound 31, (1R,3R)Methyl 1-(2,4-Dichlorophenyl)-2-(2-chloroacetyl)-2,3,4,9-tetrahydro-1H-β-carboline-3-carboxylate], the inhibition at 10 µM in assay [1] came to 98%.

`COC(=O)[C@H]1Cc2c([nH]c3ccccc23)[C@H](c2ccc(Cl)cc2Cl)N1C(=O)CCl` [Compound 32, (1S,3R)Methyl 1-(2,4-Dichlorophenyl)-2-(2-chloroacetyl)-2,3,4,9-tetrahydro-1H-β-carboline-3-carboxylate]: the inhibition at 10 µM in assay [1] amounted to 98%. For the same compound, the “growth inhibitory potency relative to 31” value in assay [1] (MDA-MB-231) is listed as roughly 10 times.

Regarding `COC(=O)[C@@H]1Cc2c([nH]c3ccccc23)[C@H](c2c(Cl)cccc2Cl)N1` [Compound 10, (1S,3S)Methyl-1-(2,6-dichlorophenyl)-2,3,4,9-tetrahydro-1H-β-carboline-3-carboxylate], the “% PDE 5 inhibition at 10 μM” value on Human recombinant PDE 5A is “inactive”.

For the compound `CCN1C(=O)[C@@H]2Cc3c([nH]c4ccccc34)[C@@H](c3ccc(Cl)cc3Cl)N2C1=O` [Compound 14, (5R,11aS) 5-(2,4-Dichlorophenyl)-2-ethyl-5,6,11,11a-tetrahydro-1H-imidazo [1′,5′:1,6] pyrido[3,4-b]indole-1,3(2H)-dione], at Human recombinant PDE 5A (IC50 of PDE11A (cGMP)/IC50 of PDE5A (cGMP)), the selectivity index is given as greater than 200.

Consider `COC(=O)[C@H]1Cc2c([nH]c3ccccc23)[C@@H](c2c(Cl)cccc2Cl)N1` [Compound 9, (1R,3R)Methyl-1-(2,6-dichlorophenyl)-2,3,4,9-tetrahydro-1H-β-carboline-3 carboxylate], for which the “% PDE 5 inhibition at 10 μM” value at Human recombinant PDE 5A is “inactive”.
